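48-hour exposure; five concentrations; linearly interpolated endpoints. TGI marks complete inhibition of growth.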
Assays:
Assay in all cases: inhibition of tumour cell growth, NCI panel, 48 h
CAKI-1 renal = test system: CAKI-1 renal
IGROV1 ovarian = test system: IGROV1 ovarian
MALME-3M melanoma = test system: MALME-3M melanoma
MDA-MB-435 = test system: MDA-MB-435
MDA-N = test system: MDA-N
NCI-H23 lung = test system: NCI-H23 lung
OVCAR-5 ovarian = test system: OVCAR-5 ovarian
RPMI-8226 leukemia = test system: RPMI-8226 leukemia
SK-MEL-28 melanoma = test system: SK-MEL-28 melanoma
SN12C renal = test system: SN12C renal
SNB-75 CNS = test system: SNB-75 CNS
UACC-62 melanoma = test system: UACC-62 melanoma

Compound	TGI (CAKI-1 renal)	TGI (IGROV1 ovarian)	TGI (MALME-3M melanoma)	TGI (MDA-MB-435)	TGI (MDA-N)	TGI (NCI-H23 lung)	TGI (OVCAR-5 ovarian)	TGI (RPMI-8226 leukemia)	TGI (SK-MEL-28 melanoma)	TGI (SN12C renal)	TGI (SNB-75 CNS)	TGI (UACC-62 melanoma)
C[C@H]1C[C@H](C)c2ccccc2N(C)C1=Nc1ccccc1	> 100 µM	78 µM	71.4 µM	52.8 µM	68.7 µM	50 µM	78 µM	> 100 µM	> 100 µM	> 100 µM	> 100 µM	> 100 µM
CCCCCC(CO)C(O)(C(F)(F)F)C(F)(F)F (stereo not given)	> 10 µM	> 10 µM	> 10 µM	> 10 µM	> 10 µM	> 10 µM	> 10 µM	> 10 µM	> 10 µM	> 10 µM	> 10 µM	> 10 µM
COc1cc(C2c3cc4c(cc3OC(Nc3ccccc3)C2C)OCO4)cc(OC)c1OC (stereo not given)	> 100 µM	> 100 µM	> 100 µM	0.527 µM	0.784 µM	> 100 µM	> 100 µM	> 100 µM	> 100 µM	> 100 µM	99.2 µM	> 100 µM
O=c1cc(CBr)c2ccc(O)cc2o1	> 100 µM	> 100 µM	> 100 µM	> 100 µM	> 100 µM	> 100 µM	> 100 µM	> 100 µM	> 100 µM	> 100 µM	> 100 µM	> 100 µM
C(=NCc1ccccc1)c1ccccc1-c1ccccc1C=NCc1ccccc1	> 10 µM	> 10 µM	> 10 µM	> 10 µM	> 10 µM	> 10 µM	> 10 µM	> 10 µM	> 10 µM	> 10 µM	> 10 µM	> 10 µM
CCC1=CC2Cc3nc4cc(Cl)ccc4c(N)c3C(C1)C2 (stereo not given)	8.38 µM	20.7 µM	9.46 µM	8.74 µM	18 µM	17.3 µM	15.4 µM	5.79 µM	7.5 µM	28.2 µM	18.5 µM	18.4 µM
CN(C)CCCCN1c2ccccc2Sc2cc(N=[N+]=[N-])ccc21	3.73 µM	3.43 µM	3.34 µM	3.09 µM	3.1 µM	22.4 µM	3.76 µM	6.06 µM	3.3 µM	12.1 µM	4.8 µM	3.31 µM
O=c1c2cc([N+](=O)[O-])ccc2n2n1Cc1ccccc1C2	> 100 µM	> 100 µM	> 100 µM	> 100 µM	> 100 µM	> 100 µM	–	> 100 µM	> 100 µM	> 100 µM	> 100 µM	> 100 µM
O=c1[nH]c(=S)[nH]n1C(=S)n1[nH]c(=S)[nH]c1=O	> 100 µM	> 100 µM	> 100 µM	> 100 µM	> 100 µM	> 100 µM	> 100 µM	> 100 µM	> 100 µM	> 100 µM	> 100 µM	> 100 µM
C=C(Br)CN(C(C)=O)C1CCCCC1	> 100 µM	> 100 µM	> 100 µM	> 100 µM	> 100 µM	> 100 µM	> 100 µM	> 100 µM	> 100 µM	> 100 µM	> 100 µM	> 100 µM
CC(=O)NC1C(O)C(O)C(CO)OC1n1ncc(=O)[nH]c1=O (stereo not given)	> 100 µM	> 100 µM	> 100 µM	> 100 µM	> 100 µM	> 100 µM	> 100 µM	> 100 µM	> 100 µM	> 100 µM	> 100 µM	> 100 µM
CCOP(=O)(OCC)c1ccc(=O)[nH]c1-c1cccs1	> 100 µM	> 100 µM	> 100 µM	> 100 µM	> 100 µM	> 100 µM	> 100 µM	> 100 µM	> 100 µM	> 100 µM	> 100 µM	> 100 µM
COc1cccc2c(Nc3ccc(S(=O)(=O)NC(C)=O)cc3)c3ccc([N+](=O)[O-])cc3nc12	> 100 µM	> 86.7 µM	> 87 µM	> 65.2 µM	> 100 µM	> 100 µM	> 100 µM	> 100 µM	> 79.5 µM	> 100 µM	> 100 µM	> 58.3 µM
O=C(O)c1ccc(Nc2nc3ccccc3nc2-c2cccs2)cc1	> 100 µM	> 100 µM	> 100 µM	> 100 µM	> 100 µM	> 100 µM	> 100 µM	> 100 µM	> 100 µM	> 100 µM	> 100 µM	> 100 µM
O=C1c2c(ccc3c2CCC3)CC12Cc1cc3c(cc1C2)CCC3	> 100 µM	> 100 µM	> 100 µM	> 100 µM	> 100 µM	> 100 µM	> 100 µM	> 100 µM	> 100 µM	> 100 µM	> 100 µM	–
OC(C/C(=N\N1CCCCC1)c1cccs1)(C(F)(F)F)C(F)(F)F	> 10 µM	> 10 µM	> 10 µM	> 10 µM	> 10 µM	> 10 µM	–	> 10 µM	> 10 µM	> 10 µM	> 10 µM	> 10 µM
CN(C)C(=O)Nc1cc2c3c(c1)CCCN3CCC2	> 10 µM	> 10 µM	> 10 µM	> 10 µM	> 10 µM	> 10 µM	–	> 10 µM	> 10 µM	> 10 µM	> 10 µM	> 10 µM
CCOC(=O)C1C(c2ccc(OC)cc2)c2c([nH][nH]c2=O)CC1(O)OCC (stereo not given)	> 100 µM	> 100 µM	> 100 µM	> 100 µM	> 100 µM	> 100 µM	> 100 µM	> 100 µM	> 100 µM	> 100 µM	> 100 µM	> 100 µM
O=c1oc2ccccc2c(O)c1C(c1ccc(/C=C/c2ccccc2)cc1)c1c(O)c2ccccc2oc1=O	61.3 µM	> 100 µM	65.7 µM	80 µM	43.9 µM	> 100 µM	–	> 100 µM	86.9 µM	53.9 µM	66.5 µM	> 100 µM

Compound	TGI (CAKI-1 renal)	TGI (IGROV1 ovarian)	TGI (MALME-3M melanoma)	TGI (MDA-MB-435)	TGI (MDA-N)	TGI (NCI-H23 lung)	TGI (OVCAR-5 ovarian)	TGI (RPMI-8226 leukemia)	TGI (SK-MEL-28 melanoma)	TGI (SN12C renal)	TGI (SNB-75 CNS)	TGI (UACC-62 melanoma)
CN(/N=C/c1ccccn1)C1=NCCCCN1	> 100 µM	> 100 µM	> 100 µM	> 100 µM	> 100 µM	> 100 µM	> 100 µM	> 100 µM	> 100 µM	–	> 100 µM	> 100 µM
Cc1ccc(S(=O)(=O)NC2C(=O)c3ccccc3C(=O)C2n2cnc3ccccc32)cc1 (stereo not given)	> 100 µM	75 µM	1.81 µM	36.4 µM	45.5 µM	58.6 µM	> 100 µM	> 100 µM	> 100 µM	> 100 µM	> 100 µM	74.4 µM
CC(=O)OC1COC(n2c(-c3ccc(Cl)cc3)cc(-c3ccccc3)c(C#N)c2=S)C(OC(C)=O)C1OC(C)=O (stereo not given)	50 µM	> 31.6 µM	> 100 µM	> 62.4 µM	> 100 µM	28.3 µM	> 100 µM	> 100 µM	> 45.8 µM	31.8 µM	> 100 µM	> 31.6 µM
NC(N)=N/N=C/c1c(-c2ccc([N+](=O)[O-])cc2)nc2n1CCS2	34.4 µM	38.6 µM	36.6 µM	43.5 µM	26.5 µM	31.3 µM	28 µM	> 63.3 µM	34.8 µM	19.2 µM	14.5 µM	35.3 µM
COc1ccc(C2=C(N)c3c(OC)cccc3C2=O)cc1	> 100 µM	> 100 µM	> 100 µM	> 100 µM	> 100 µM	> 100 µM	> 100 µM	> 100 µM	> 100 µM	> 100 µM	> 100 µM	> 100 µM
COc1ccc2c(c1)N=C1CSC(c3cccc(Br)c3)N1C2 (stereo not given)	59.3 µM	80.7 µM	43.1 µM	34.5 µM	34.5 µM	45.3 µM	56.8 µM	29.7 µM	> 100 µM	39.7 µM	38.5 µM	31.8 µM
COc1c2ccccc2c(OC)c2nc(C)ccc12	> 100 µM	> 100 µM	> 100 µM	> 100 µM	> 100 µM	> 100 µM	> 100 µM	> 100 µM	> 100 µM	> 100 µM	> 100 µM	> 100 µM
[O-][n+]1onc(-c2ccccc2)c1CN1CCOCC1	> 100 µM	> 100 µM	> 100 µM	> 100 µM	> 100 µM	> 100 µM	> 100 µM	> 100 µM	> 100 µM	> 100 µM	> 100 µM	> 100 µM
COc1ccc(C(c2c[nH]c3ccc(Br)cc23)c2c[nH]c3ccc(Br)cc23)cc1	1.64 µM	0.803 µM	2.23 µM	0.42 µM	0.552 µM	1.47 µM	1.2 µM	0.543 µM	0.743 µM	–	1.54 µM	0.689 µM
N#Cc1sc2c(c1OC(=O)c1cccs1)c(=O)n(-c1ccccc1)c(=S)n2-c1ccccc1	> 100 µM	39.4 µM	40.7 µM	> 100 µM	68.5 µM	93.5 µM	–	49.6 µM	61.6 µM	47.2 µM	> 100 µM	35.2 µM
Fc1ccccc1-c1nn2c(C34CC5CC(CC(C5)C3)C4)nnc2s1	> 100 µM	> 100 µM	> 100 µM	> 100 µM	> 100 µM	> 100 µM	> 100 µM	> 100 µM	> 100 µM	> 100 µM	> 100 µM	> 100 µM
Cn1c(NS(=O)(=O)c2ccccc2)nc2ccccc21	> 100 µM	> 100 µM	> 100 µM	> 100 µM	> 100 µM	> 100 µM	> 100 µM	> 100 µM	> 100 µM	> 100 µM	> 100 µM	> 100 µM
Cc1ccc(Nc2nc(N)nc3c2ncn3C2OC(CO)C(O)C2O)cc1 (stereo not given)	> 100 µM	> 100 µM	> 100 µM	> 100 µM	> 100 µM	> 100 µM	> 100 µM	> 100 µM	> 100 µM	> 100 µM	> 100 µM	> 100 µM
O=C1c2ccccc2-c2ccc(N=Nc3c(O)ccc4ccccc34)cc21	> 100 µM	> 100 µM	> 100 µM	> 100 µM	> 100 µM	> 100 µM	> 100 µM	> 100 µM	> 100 µM	> 100 µM	> 100 µM	> 100 µM
Nc1cn(Cc2ccccc2)c2nc(/C=C3/C=CC=CC3=O)c(O)n12	> 100 µM	> 100 µM	> 100 µM	> 100 µM	> 100 µM	> 100 µM	> 100 µM	> 100 µM	> 100 µM	> 100 µM	> 100 µM	> 100 µM
O=C1CCC2CCC1C2 (stereo not given)	> 100 µM	–	> 100 µM	> 100 µM	> 100 µM	> 100 µM	> 100 µM	> 100 µM	> 100 µM	> 100 µM	> 100 µM	> 100 µM
NNc1nc2ccccc2s1	> 100 µM	> 100 µM	> 100 µM	> 100 µM	> 100 µM	> 100 µM	> 100 µM	> 100 µM	> 100 µM	> 100 µM	> 100 µM	> 100 µM
CCOC(=O)C(NC(=O)CC(C)C)(Nc1ccc(S(=O)(=O)Nc2nc(C)cc(C)n2)cc1)C(F)(F)F (stereo not given)	> 100 µM	> 100 µM	> 100 µM	> 100 µM	> 100 µM	> 100 µM	> 100 µM	> 100 µM	> 100 µM	> 100 µM	> 100 µM	> 100 µM

Reference: PubChem BioAssay (NCI)
